In assay [1] the test system is NCI-H1975. Description: Antiproliferative activity against human NCI-H1975 cells assessed as reduction in cell viability incubated for 72 hrs by SRB assay. Format: functional, cell-based. The settings on record: NCI-H1975, 72 h. For orientation: Sulforhodamine B stains cellular protein and so reports cell mass.
Assay [2] concerns Hs68. Kind of assay: Cytotoxicity against human HS68 cells assessed as reduction in cell viability incubated for 72 hrs by SRB assay. Format: cell-based. As to conditions: Hs68, 72 h.
Assay [3] deals with NCI-H1975. Kind of assay: Potency index, ratio of IC50 of AS4583 to IC50 of compound for Antiproliferative activity against human NCI-H1975 cells assessed as reduction in cell viability incubated for 72 hrs by SRB assay. Format: functional.
Assay [4] concerns NCI-H1975. Description: Antitumor activity against human NCI-H1975 cells xenografted in athymic nude BALB/c mouse assessed as tumor size at 1 mg/kg, ip administered for 4 weeks (reference value: 546.2 +/- 95.2 cu.mm). The format is functional. Background: Xenograft models place foreign cells or tissue in a host animal.
The subject of assay [5] is NCI-H1975. Kind of assay: Antitumor activity against human NCI-H1975 cells xenografted in athymic nude BALB/c mouse assessed as tumor size at 4 mg/kg, ip administered for 4 weeks (reference value: 546.2 +/- 95.2 cu.mm). Format: functional.

These results are taken from ChEMBL document CHEMBL4602694, “Suppression of Drug-Resistant Non-Small-Cell Lung Cancer with Inhibitors Targeting Minichromosomal Maintenance Protein” (J Med Chem, 2020).

Turning to `Cc1oc2c(c1C(=O)NCCn1ccnc1)C(=O)c1ccccc1C2=O`, the half-inhibitory concentration (IC50) in assay [1] turned out to be 280 nM.
Turning to `Cc1oc2c(c1C(=O)NCCCN1CCOCC1)C(=O)c1ccccc1C2=O`, in assay [1], the concentration for half-maximal inhibition (IC50) stood at 80 nM.
Still for that read-out and setting: then `CCc1oc2c(c1C(=O)NCCCn1ccnc1)C(=O)c1ccccc1C2=O`, with 288 nM; and `Cc1oc2c(c1C(=O)NCCCCc1ccccc1)C(=O)c1ccccc1C2=O`, with more than 10000 nM; and `Cc1oc2c(c1C(=O)NCCCn1cccc1)C(=O)c1ccccc1C2=O`, with 918 nM.
On to `Cc1oc2ccccc2c1C(=O)NCCCn1ccnc1`, for which the half-maximal inhibitory concentration (IC50) in assay [1] is more than 10000 nM.
As for `Cc1oc2c(c1C(=O)NCCCN1CCCC1)C(=O)c1ccccc1C2=O`, the IC50 was determined as 24 nM in assay [1] and 77 nM in assay [2].
As to `O=C1c2ccccc2C(=O)c2c1oc(-c1ccccc1)c2C(=O)NCCCn1ccnc1`, in assay [1], the IC50 was 826 nM.
The same measure, in the same setting: the result for `Cc1oc2c(c1C(=O)NCCCCn1ccnc1)C(=O)c1ccccc1C2=O` reads 250 nM; that for `CC(C)c1oc2c(c1C(=O)NCCCn1ccnc1)C(=O)c1ccccc1C2=O`, 260 nM.
Turning to `Cc1[nH]c2c(c1C(=O)NCCCn1ccnc1)C(=O)c1ccccc1C2=O`, the IC50 in assay [1] turned out to be 8730 nM. Besides, the “Ratio IC50” value in assay [3] came out at 100.
Consider `Cc1oc2c(c1C(=O)NCCCn1ccnc1)C(=O)c1ccc(F)cc1C2=O`, for which the IC50 in assay [1] worked out at 17 nM. For the same molecule, the Activity was found to be 128.2 mm3 in assay [4] and 109.5 mm3 in assay [5].

As a reminder, the IC50 is the concentration that inhibits the measured activity by half.
